Data reported in article PMC8243515 (JHEP Reports, 2021).
pEC50: −log10 of the molar value. “Also recorded” adds a separate entry of the source. Read-outs that look alike come from different tables or passages of the source.

How the values were obtained:
HBV [1] = experiment: microbe, parasite or virus in culture; assay type: cell-based, hepatitis B virus genotype D; conditions: for %Imax, p1 infection: percent maximum inhibition; for effect on p1 cell infection (phenotype): reference inhibitors, assay validation; for EC50: read-out: EC50 (μM), early HBV life cycle inhibitors
HBV [2] = experiment: microbe, parasite or virus in culture; assay type: cell-based, hepatitis B virus genotype D; conditions: for %Imax, p2 infection: percent maximum inhibition; for Emax: read-out: %Imax; for p2 cells still infected at high inhibitor concentrations: high concentrations of late-phase reference inhibitors
HBV [3] = conditions: read-out: Published EC50, cited from earlier work
HepG2-NTCPsec+ cells = experiment: Cell viability by automated nuclei counting; assay type: cell-based, human; conditions: hit confirmation DRC, 10-point serial dilutions starting at 25 μM
NTCP [4] = molecular target: T1, NTCP (Homo sapiens, UniProt Q14973); experiment: Binding assay of Alexa633-labelled HBV preS1 peptide; conditions: for effect on preS1 peptide binding to NTCP: cytochalasin D tested up to 50 μM
T1 sequence (Q14973 1-349): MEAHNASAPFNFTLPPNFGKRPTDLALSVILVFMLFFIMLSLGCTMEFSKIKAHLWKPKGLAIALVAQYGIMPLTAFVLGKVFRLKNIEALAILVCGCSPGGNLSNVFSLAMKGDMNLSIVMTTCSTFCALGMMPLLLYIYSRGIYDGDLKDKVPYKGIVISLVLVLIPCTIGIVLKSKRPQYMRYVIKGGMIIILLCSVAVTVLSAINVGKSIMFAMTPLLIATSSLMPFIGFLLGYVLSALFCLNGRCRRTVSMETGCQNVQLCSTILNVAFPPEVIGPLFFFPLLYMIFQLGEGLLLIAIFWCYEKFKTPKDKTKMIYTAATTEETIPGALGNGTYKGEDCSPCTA

[5] = tested on: HBV preS1 peptide internalisation; experiment: Live-cell imaging of Alexa633-labelled preS1 peptide internalisation; assay type: cell-based; conditions: after transfer to 37°C, confocal live-cell imaging
SARS-CoV-2 [6] = assay type: cell-based
HIV-1 = assay type: cell-based, HIV-1 strain LAI; conditions: Fig. S3
HBV [7] = experiment: Time-of-addition experiments, HBV infection; assay type: cell-based, hepatitis B virus; conditions: pretreatment/cotreatment vs post-inoculation 1-7 dpi
SARS-CoV-2 [8] = conditions: virus-free, live-cell assay; cited from earlier work
HBV [9] = experiment: Stably HBV replicating HepAD38 cells, supernatant HBV DNA by quantitative PCR; assay type: cell-based, hepatitis B virus; conditions: supernatant qPCR at 7 days post-treatment
HCV = assay type: cell-based
NTCP [10] = molecular target: T1, NTCP; conditions: transiently NTCP-transfected U2OS cells; cited from earlier work
HBV and HDV = conditions: cited from earlier work
[11] = read-out: EC50, p1 infection, p1 cells, DRC of reference inhibitors

## COC(=O)C1=C(C)NC(c2ncc(F)cc2F)=N[C@H]1c1ccc(F)cc1Cl [Bay41-4109]
HBV [1]; p1 cells
  %Imax, p1 infection: 99%
HBV [1]; [11]
  pEC50: 5.89
HBV [2]; p2 cells
  %Imax, p2 infection: 99%

## O=C(CN(c1cc(C(F)(F)F)ccc1Cl)S(=O)(=O)c1ccccc1)NCc1ccncc1 [CCC-0975]
HBV [1]; p1 cells
  %Imax, p1 infection: 60%
HBV [1]; [11]
  pEC50: ~5.30
HBV [1]
  effect on p1 cell infection (phenotype): inhibited HBV infection in p1 and p2 cells
HBV [2]; after supernatant transfer
  effect on p2 cell infection / infectivity of HBV progeny: inhibited HBV infection in p1 and p2 cells
HBV [2]; read-out: EC50, p2 infection (after supernatant transfer), p2 cells
  pEC50: ~5.10
HBV [3]; System HepDE19, ref PMID 22644022
  pEC50: 5.00

## CC(C)(C)c1cc(C(=O)/C=C/c2ccc(C(=O)O)cc2)cc(C(C)(C)C)c1 [Ch 55]
HBV [2]; p2 inhibitor, hit confirmation DRC
  %Imax: 99.9%
HBV [2]; p2 inhibitor, hit confirmation DRC, 10-point serial dilutions starting at 25 μM
  pEC50: 5.49
HepG2-NTCPsec+ cells
  CC50: > 25 µM

## C=C1[C@@H](C)[C@H]2[C@H](Cc3ccccc3)NC(=O)[C@]23[C@H](OC(C)=O)/C=C/[C@@](C)(O)C(=O)[C@@H](C)C/C=C/[C@H]3[C@@H]1O [Cytochalasin D, cytochalasin D]
HBV [1]; Hepatitis B virus
  EC50: 0.07 µM
HBV [1]; p1 cells
  Imax (%), early HBV life cycle inhibitors: 86%
NTCP [4]
  effect on preS1 peptide binding to NTCP: did not prevent the binding
NTCP [4]; listed as cytochalasin D
  effect on preS1 peptide binding to NTCP: did not interfere with receptor–virus binding
[5]
  effect on internalisation of HBV preS1 peptide: prevented the internalisation of HBV; also recorded: partially reduced; also recorded: partial retention of the peptide at the plasma membrane
SARS-CoV-2 [6]; Fig. S3
  effect on SARS-CoV-2 infection: minor activity in both virus systems; also recorded: inhibits SARS-CoV-2 infection
HIV-1
  effect on HIV-1 infection: minor activity in both virus systems
HBV [7]
  anti-HBV activity in time-of-addition experiments: exhibited anti-HBV activity exclusively under the pretreatment/cotreatment conditions
SARS-CoV-2 [8]
  effect on SARS-CoV-2 cell entry: prevent SARS-CoV-2 cell entry

## Nc1ncn([C@H]2C[C@H](O)[C@@H](CO)O2)c(=O)n1 [Decitabine]
HBV [2]; Hepatitis B virus
  Emax: 91.9%

## Cc1cccc([C@H](C)c2cnc[nH]2)c1C [Dexmedetomidine, dexmedetomidine]
HBV [2]
  Imax (%), late HBV life cycle inhibitors: 82%
  effect on p2 cell infection / infectivity of HBV progeny: interfered with the infectivity of HBV progeny; also recorded: mitigated the infectivity of secreted progeny HBV particles; also recorded: strongly suppresses the infectivity of secreted progeny HBV particles
HBV [2]; Hepatitis B virus, read-out: EC50 (μM), late HBV life cycle inhibitors
  EC50: 6.2 µM
HBV [2]; read-out: EC50 (μM), late HBV life cycle inhibitors
  EC50: 6.23 µM
HBV [9]
  effect on HBV replication / HBV DNA secretion in HepAD38 cells: without reducing HBV replication or genome secretion; also recorded: did not inhibit HBV DNA replication
HCV
  effect on HCV replication and secretion: no inhibition was observed; also recorded: do not interfere in the production and spread
SARS-CoV-2 [6]
  effect on SARS-CoV-2 infection: no inhibition was observed; also recorded: do not interfere in the production and spread

## C=C1[C@H](CO)[C@@H](O)C[C@@H]1n1cnc2c(=O)[nH]c(N)nc21 [Entecavir]
HBV [2]; Hepatitis B virus
  Emax: 96.7%

## O=c1[nH]c(=O)n([C@H]2C[C@H](O)[C@@H](CO)O2)cc1F [Floxuridine]
HBV [2]; Hepatitis B virus
  Emax: 97.6%

## O=C(O)P(=O)(O)O [Foscarnet]
HBV [2]; Hepatitis B virus
  Emax: 94.2%

## CCOC(=O)C1=C(CN2CCOCC2)NC(c2nccs2)=NC1c1ccc(F)cc1Br (stereo not drawn) [GLS4]
HBV [1]; class II core protein allosteric modifiers, Fig. S4
  HBcAg phenotype under CpAM treatment: aggregated HBcAg phenotype

## CC(C)OC(=O)[C@H](C)N[P@](=O)(CO[C@H](C)Cn1cnc2c(N)ncnc21)Oc1ccccc1 [GS-7340]
HBV [2]; Hepatitis B virus
  pEC50: > 7.30
  Emax: 99.4%

## O=C1Cc2ccccc2C(=O)N1O [HID, N-hydroxyisoquinolinedione]
HBV [1]; [11]
  pEC50: < 4.30
HBV [1]
  effect on p1 cell infection (phenotype): did not affect the infection status of p1 cells
HBV [2]; after supernatant transfer
  effect on p2 cell infection / infectivity of HBV progeny: reduced number of infected p2 cells
HBV [2]
  p2 cells still infected at high inhibitor concentrations: 2–5%
HBV [2]; p2 cells
  %Imax, p2 infection: 99%
HBV [3]; System HepDES19, ref PMID 24858512
  pEC50: 5.38

## CN1c2cc3c(cc2N=C(c2ccc(C(=O)O)cc2)c2ccccc21)C(C)(C)CCC3(C)C [LE 135]
HBV [1]; p1 inhibitor, hit confirmation DRC
  %Imax: 94.5%
HBV [1]; p1 inhibitor, hit confirmation DRC, 10-point serial dilutions starting at 25 μM
  pEC50: 4.93
HepG2-NTCPsec+ cells
  CC50: > 25 µM

## Nc1ccn([C@@H]2CS[C@H](CO)O2)c(=O)n1 [LMV, lamivudine]
HBV [1]; Hepatitis B virus, read-out: EC50, p1 infection
  pEC50: < 5.00
HBV [2]; Hepatitis B virus, read-out: EC50 (μM), late HBV life cycle inhibitors, infectious HBV genotype D, p2 cells
  EC50: 0.02 µM
HBV [2]
  p2 cells still infected at high inhibitor concentrations: 2–5%
HBV [2]; p2 cells
  Imax (%), late HBV life cycle inhibitors: 98%

## CC[C@H](C)C(=O)O[C@H]1CCC=C2C=C[C@H](C)[C@H](CC[C@@H]3C[C@@H](O)CC(=O)O3)[C@H]21 [Mevastatin]
HBV [2]; Hepatitis B virus
  Emax: 101%

## COC(=O)Nc1nc2ccc(C(=O)c3cccs3)cc2[nH]1 [Nocodazole]
HBV [2]; Hepatitis B virus
  Emax: 91.8%

## CC[C@@H]([C@H](C)O)n1ncn(-c2ccc(N3CCN(c4ccc(OC[C@@H]5CO[C@@](Cn6cncn6)(c6ccc(F)cc6F)C5)cc4)CC3)cc2)c1=O [Posaconazole]
HBV [2]; Hepatitis B virus
  Emax: 96.4%

## C#CCC(Cc1cnc2nc(N)nc(N)c2n1)c1ccc(C(=O)N[C@@H](CCC(=O)O)C(=O)O)cc1 (stereo partly drawn) [Pralatrexate]
HBV [2]; Hepatitis B virus
  Emax: 102%

## O=C(Nc1cccc2c(=O)cc(-c3nnn[nH]3)oc12)c1ccc(OCCCCc2ccccc2)cc1 [Pranlukast, pranlukast]
HBV [1]; Hepatitis B virus
  EC50: 4.3 µM
HBV [1]; p1 cells
  Imax (%), early HBV life cycle inhibitors: 92%
NTCP [4]
  pEC50: 5.12
  effect on preS1 peptide binding to NTCP: inhibited HBV preS1 binding
NTCP [4]; listed as pranlukast
  effect on preS1 peptide binding to NTCP: blocked the binding
SARS-CoV-2 [6]; Fig. S3
  effect on SARS-CoV-2 infection: only inhibited HIV-1; also recorded: but not pranlukast
HIV-1
  effect on HIV-1 infection: only inhibited HIV-1
HBV [7]
  anti-HBV activity in time-of-addition experiments: exhibited anti-HBV activity exclusively under the pretreatment/cotreatment conditions
NTCP [10]
  effect on NTCP bile acid transporter function: inhibits the bile acid transporter function

## Cc1nc2ccc(CN(C)c3ccc(C(=O)N[C@@H](CCC(=O)O)C(=O)O)s3)cc2c(=O)[nH]1 [Raltitrexed]
HBV [2]; Hepatitis B virus
  Emax: 93.7%

## Cc1c(C(=O)NN2CCCCC2)nn(-c2ccc(Cl)cc2Cl)c1-c1ccc(Cl)cc1 [Rimonabant]
HBV [2]; Hepatitis B virus
  Emax: 99.4%

## CCC(C)(C)C(=O)O[C@H]1C[C@@H](C)C=C2C=C[C@H](C)[C@H](CC[C@@H]3C[C@@H](O)CC(=O)O3)[C@H]21 [Simvastatin]
HBV [2]; Hepatitis B virus
  Emax: 99.9%

## CC(C)OC(=O)OCOP(=O)(CO[C@H](C)Cn1cnc2c(N)ncnc21)OCOC(=O)OC(C)C.O=C(O)/C=C/C(=O)O [TDF, tenofovir disoproxil fumarate]
HBV [1]; [11]
  pEC50: < 4.30
HBV [1]
  effect on p1 cell infection (phenotype): did not affect the infection status of p1 cells
HBV [2]; after supernatant transfer
  effect on p2 cell infection / infectivity of HBV progeny: reduced number of infected p2 cells
HBV [2]
  p2 cells still infected at high inhibitor concentrations: 2–5%

## CC[C@]1(O)C[C@H]2CN(CCc3c([nH]c4ccccc34)[C@@](C(=O)OC)(c3cc4c(cc3OC)N(C=O)[C@H]3[C@@](O)(C(=O)OC)[C@H](OC(C)=O)[C@]5(CC)C=CCN6CC[C@]43[C@@H]65)C2)C1 [Vincristine]
HBV [2]; Hepatitis B virus
  Emax: 96.9%

## COc1cc(C(=O)NS(=O)(=O)c2ccccc2C)ccc1Cc1cn(C)c2ccc(NC(=O)OC3CCCC3)cc12 [zafirlukast]
HBV and HDV
  concentration significantly inhibiting HBV and HDV infection: 6 µM

## IFNα
HBV [1]; p1 cells treated over several weeks, Fig. S5A
  antiviral effect on early HBV life cycle steps: no or only insignificant antiviral effects
HBV [2]
  antiviral effect on late HBV life cycle steps: no or only insignificant antiviral effects
